In US20040162247A1, “Therapeutic agent or osteoporosis comprising an active ingredient of quercetin derivatives” (priority 2000, published 2004):

Key:
ovariectomized rats [1] = test: Complete blood count in ovariectomized rats; assay type: in vivo, Female SD (Sprague-Dawley) rats
Description: (§1) When test agents were administered, for a certain period of time before and after administration, 1.5 ml of blood was sampled from tail vein using a catheter (B.D Co.: 24 G) and subjected to complete blood count (Coulter Co.: JT) and biochemical analyses of plasma (Crone Co.: Airon® 200). During autopsy, blood was sampled from caudal venae cavae and subjected to the analyses above. And then, each sample was frozen to store for measurement of trabecular bone area of femur and examination of internal organs.
Complete blood count which reflects the condition and abnormality of the body was measured to find out abnormality in test animals caused by administrtion of agents. That is, to find out changes in hematopoiesis of test rats, measured were red blood cell (RBC) count, concentration of hemoglobin (Hb) and hematocrit (Ht) of-blood samples obtained from the rats prior to operation and the rats 10 weeks after administrating agents following operation, and to find out changes in immune system such as inflammation and necrosis of tissues, measured were white blood cell count, lymphocyte count, monocyte count, and granulocyte count (see: Table 7).

ovariectomized rats [2] = test: Trabecular bone area of tibia in ovariectomized rats;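 as to Change Rate (%) of TBA of tibia, of control group: control group rats were ovariectomized and are not the sham group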; assay type: in vivo, Female SD (Sprague-Dawley) rats; details: OVX rats, 9 weeks i.p. (E2 1 μg/kg/day; quercetin, genistein 10 mg/kg/day); for Change Rate (%) of TBA of tibia, of control group: control group = 100
Description: (§2) Trabecular bone area (TBA) of lumbar and tibia removed from the rats of each group which was treated with various agents for 9 weeks were measured as follows: that is, using a digitalizer of quantitative image analysis system (Wild Leitz Co.), image of each trabecula was obtained on computer monitor by drawing a contour of the trabecula, and then, using a computer, calculated were average areas of trabeculae within a rectangle of 2×10^6 μm^2 area wherein the width is about ⅔ of the length of growth plate which located underneath of growth plate at proximity of tibia. Also, following the number of trabeculae within the rectangle were obtained, average area was multiplied by the number of trabeculae to obtain trabecular bone area of each sample bone, which was analyzed statistically (see: Table 5).

[3] = test system: ALP activity in osteoblasts (Saos-2); test: Alkaline phosphatase (ALP) activity in osteoblasts; assay type: cell-based, human; details: Saos-2, 3 days
Description: Since osteoblasts have cell specific alkaline phosphatase activity, the effect of quercetin of the invention on ALP activity in osteoblasts was evaluated as follows: the number of cells, concentration of tested agent, and culture condition were same as those used in MTT experiment of Example 1-2, and cells were harvested after 3 day-incubation. Genistein was used as a comparative agent. ALP activity was evaluated by analysing changes of OD at 405 nm result from hydrolysis of p-nitrophenylphosphate to p-nitrophenol and phosphate (see: Table 1).

ovariectomized rats [4] = test: Trabecular bone area of lumbars in ovariectomized rats;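 as to Change Rate (%) of TBA of lumbars, of control group: control group rats were ovariectomized and are not the sham group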; assay type: in vivo, Female SD (Sprague-Dawley) rats; details: OVX rats, 9 weeks i.p. (E2 1 μg/kg/day; quercetin, genistein 10 mg/kg/day); for Change Rate (%) of TBA of lumbars, of control group: control group = 100
Description: as §2
TBAs of lumbars removed from the animal treated with test agents for 9 weeks were measured employing the same method above (see: Table 6).

[5] = test system: human osteoblast-like cell line Saos-2; test: Cell proliferation of Saos-2 cells, MTT method; assay type: cell-based; details: Saos-2, 3 days
Description: Saos-2 cell line which has similar properties to osteoblasts was obtained from Korean Cell Line Bank affiliated to the Cancer Research Institute of School of Medicine, Seoul National University.
Saos-2 cells were seeded in a RPMI 1640 medium (Gibco BRL, U.S.A.) supplemented with 10% (v/v) FBS, 100 unit/ml penicillin, 100 gg/ml streptomycin and grown to form a monolayer in an incubator at 37° C. under an environment of 5% (v/v) CO2 and saturated humidity. The culture was fed with fresh medium 2 to 3 times a week and subcultured once a week using 0.25% (w/v) trypsin.
Saos-2 cells were distributed into a 96-well plate (20,000 cells/well) and quercetin in 1% DMSO was added to a final concentration of 10-2 to 10^−9 mg/ml, 6 wells per each concentration. As a control group, cells without quercetin were used, and as a comparative group, the cells treated with various concentrations of genistein, being studied as a therapeutic agent for osteoporosis, were used. Cells were grown in an incubator at 37° C. for 3 days and incubated 4 more hours under the same condition after adding MTT (3-[4,5-dimethylthiazol-2-yl]-2,5-diphenyltetrazolium bromide, Triazolyl Blue) to a concentration of 0.05 mg/ml. Then, purple colored for-mazan formed in proportion to the number of viable cells was dissolved in DMSO and measured OD at 550 nm employing ELISA reader.
Cell proliferation rate (%) was evaluated by calculating the ratio of the OD of quercetin added well to the OD of control well, wherein, average value of ODs from 6 wells treated with the same concentration of quercetin was employed (see: Table 1).
cell proliferation rate (%)={(average value of OD at 550 nm of quercetin-treated wells—average value of OD at 550 nm of empty wells)/average value of OD at 550 nm of control wells}×100

ovariectomized rats [6] = test: Biochemical parameters in plasma of ovariectomized rats; assay type: in vivo, Female SD (Sprague-Dawley) rats
Description: as §1
Since blood reflects the condition of body, safety of quercetin in the body was evaluated by measuring biochemical parameters: that is, blood samples were obtained from the rat prior to operation, one week after operation, and 10 weeks after operation, and measured were levels of alkaline phosphatase (ALP), calcium, inorganic phosphate, blood urea nitrogen (BUN), creatinin, total cholesterol, HDL-cholesterol and LDL-cholesterol (see: Table 8).

[7] = after operation and drug administration (E2 1 μg/kg/day; quercetin, genistein 10 mg/kg/day i.p.)
[8] = 1 week after operation (start of administration)
[9] = 10 weeks after operation, 9 weeks i.p. (E2 1 μg/kg/day; quercetin, genistein 10 mg/kg/day)

White blood cell count, before versus after operation (in words) (ovariectomized rats [1]; OVX rats after drug administration): did not show any changes
Concentration of hemoglobin(Hb) (ovariectomized rats [1]; [7]): 14.70 ± 0.22 g/dL
Granulocyte count (ovariectomized rats [1]; [7]): 2.38 ± 0.37 ×10^3 cells/μl
Hematocrit(Ht) (ovariectomized rats [1]; [7]): 40.66 ± 0.56 %
Lymphocyte count (ovariectomized rats [1]; [7]): 15.25 ± 3.21 ×10^3 cells/μl
Monocyte count (ovariectomized rats [1]; [7]): 0.80 ± 0.19 ×10^3 cells/μl
Red blood cell(RBC) count (ovariectomized rats [1]; [7]): 7.17 ± 0.13 ×10^6 cells/μl
White blood cell count (ovariectomized rats [1]; [7]): 21.50 ± 2.53 ×10^3 cells/μl
Concentration of hemoglobin(Hb) (ovariectomized rats [1]; before operation (baseline)): 15.82 ± 0.27 g/dL
Granulocyte count (ovariectomized rats [1]; before operation (baseline)): 2.23 ± 0.10 ×10^3 cells/μl
Hematocrit(Ht) (ovariectomized rats [1]; before operation (baseline)): 42.76 ± 0.65%
Lymphocyte count (ovariectomized rats [1]; before operation (baseline)): 19.68 ± 4.52 ×10^3 cells/μl
Monocyte count (ovariectomized rats [1]; before operation (baseline)): 0.77 ± 0.09 ×10^3 cells/μl
Red blood cell(RBC) count (ovariectomized rats [1]; before operation (baseline)): 7.32 ± 0.13 ×10^6 cells/μl
White blood cell count (ovariectomized rats [1]; before operation (baseline)): 27.30 ± 4.85 ×10^3 cells/μl
Concentration of ALP in plasma (ovariectomized rats [6]; [8]): 212.10 ± 17.92 U/dL
Concentration of HDL-cholesterol in plasma (ovariectomized rats [6]; [8]): 35.26 ± 1.92 mg/dL
Concentration of LDL-cholesterol in plasma (ovariectomized rats [6]; [8]): 60.47 ± 7.04 mg/dL
Concentration of blood urea nitrogen (BUN) (ovariectomized rats [6]; [8]): 18.26 ± 0.94 mg/dL
Concentration of calcium in plasma (ovariectomized rats [6]; [8]): 8.97 ± 0.29 mg/dL
Concentration of creatinin in plasma (ovariectomized rats [6]; [8]): 0.64 ± 0.02 mg/dL
Concentration of inorganic phosphate in plasma (ovariectomized rats [6]; [8]): 6.47 ± 0.16 mg/dL
Concentration of total cholesterol in plasma (ovariectomized rats [6]; [8]): 91.56 ± 3.65 mg/dL
Concentration of ALP in plasma (ovariectomized rats [6]; [9]): 127.14 ± 9.95^##$$ U/dL
Concentration of HDL-cholesterol in plasma (ovariectomized rats [6]; [9]): 29.27 ± 1.98 mg/dL
Concentration of LDL-cholesterol in plasma (ovariectomized rats [6]; [9]): 91.80 ± 6.57^##$$ mg/dL
Concentration of blood urea nitrogen (BUN) (ovariectomized rats [6]; [9]): 18.31 ± 0.86 mg/dL
Concentration of calcium in plasma (ovariectomized rats [6]; [9]): 10.44 ± 0.22^$ mg/dL
Concentration of creatinin in plasma (ovariectomized rats [6]; [9]): 0.82 ± 0.04^##$ mg/dL
Concentration of inorganic phosphate in plasma (ovariectomized rats [6]; [9]): 5.62 ± 0.25 mg/dL
Concentration of total cholesterol in plasma (ovariectomized rats [6]; [9]): 121.07 ± 6.53 mg/dL
Level of inorganic phosphate 10 weeks after operation versus prior to operation (in words) (ovariectomized rats [6]; OVX rats, 10 mg/kg/day i.p.): remarkably decreased
Plasma ALP activity 10 weeks after operation versus prior to and one week after operation (in words) (ovariectomized rats [6]; OVX rats, 10 mg/kg/day i.p.): significant decrease of ALP activity
Concentration of ALP in plasma (ovariectomized rats [6]; before operation (baseline)): 208.86 ± 19.72 U/dL
Concentration of HDL-cholesterol in plasma (ovariectomized rats [6]; before operation (baseline)): 61.12 ± 3.57 mg/dL
Concentration of LDL-cholesterol in plasma (ovariectomized rats [6]; before operation (baseline)): 24.39 ± 3.63 mg/dL
Concentration of blood urea nitrogen (BUN) (ovariectomized rats [6]; before operation (baseline)): 16.82 ± 0.60 mg/dL
Concentration of calcium in plasma (ovariectomized rats [6]; before operation (baseline)): 10.61 ± 0.49 mg/dL
Concentration of creatinin in plasma (ovariectomized rats [6]; before operation (baseline)): 0.51 ± 0.04 mg/dL
Concentration of inorganic phosphate in plasma (ovariectomized rats [6]; before operation (baseline)): 7.18 ± 0.48 mg/dL
Concentration of total cholesterol in plasma (ovariectomized rats [6]; before operation (baseline)): 85.51 ± 5.45 mg/dL
SMILES: O=c1c(-c2ccc(O)cc2)coc2cc(O)cc(O)c12 [Genistein, genistein]
TBA (trabecular bone area) of tibia (ovariectomized rats [2]): 47.65 ± 2.07 ×10^4 μm^2
Change Rate (%) of TBA of tibia, of control group (ovariectomized rats [2]): 137.62 ± 5.98%
Change Rate (%) of TBA of tibia, of control group (ovariectomized rats [2]; listed as genistein): 138%
ALP activity (% of control group) ([3]; 1 × 10^−2 mg/ml): 62.3 ± 3.4 % of control group
ALP activity (% of control group) ([3]; 1 × 10^−3 mg/ml): 98.8 ± 6.9 % of control group
ALP activity (% of control group) ([3]; 1 × 10^−4 mg/ml): 121.1 ± 6.2 % of control group
ALP activity (% of control group) ([3]; 1 × 10^−4 mg/ml, listed as genistein): 121 % of control group
ALP activity (% of control group) ([3]; 1 × 10^−5 mg/ml): 113.5 ± 7.3 % of control group
ALP activity (% of control group) ([3]; 1 × 10^−6 mg/ml): 103.8 ± 8.7 % of control group
ALP activity (% of control group) ([3]; 1 × 10^−7 mg/ml): 109.3 ± 9.6 % of control group
ALP activity (% of control group) ([3]; 1 × 10^−8 mg/ml): 101.5 ± 8.8 % of control group
ALP activity (% of control group) ([3]; 1 × 10^−9 mg/ml): 106.1 ± 6.4 % of control group
TBA (trabecular bone area) of lumbars (ovariectomized rats [4]): 86.58 ± 3.00 ×10^4 μm^2
Change Rate (%) of TBA of lumbars, of control group (ovariectomized rats [4]): 128.23 ± 4.45 %
Change Rate (%) of TBA of lumbars, of control group (ovariectomized rats [4]; listed as genistein): 128%
MTT assay (% of control group) ([5]; 1 × 10^−2 mg/ml): 66.2 ± 2.8 % of control group
MTT assay (% of control group) ([5]; 1 × 10^−2 mg/ml, listed as genistein): 66 % of control group
MTT assay (% of control group) ([5]; 1 × 10^−3 mg/ml): 85.5 ± 1.1 % of control group
MTT assay (% of control group) ([5]; 1 × 10^−3 mg/ml, listed as genistein): 86 % of control group
MTT assay (% of control group) ([5]; 1 × 10^−4 mg/ml): 95.7 ± 0.7 % of control group
MTT assay (% of control group) ([5]; 1 × 10^−5 mg/ml): 97.3 ± 1.6 % of control group
MTT assay (% of control group) ([5]; 1 × 10^−6 mg/ml): 90.5 ± 0.9 % of control group
MTT assay (% of control group) ([5]; 1 × 10^−6 mg/ml, listed as genistein): 90.5 % of control group
MTT assay (% of control group) ([5]; 1 × 10^−7 mg/ml): 95.9 ± 1.6 % of control group
MTT assay (% of control group) ([5]; 1 × 10^−8 mg/ml): 96.9 ± 2.7 % of control group
MTT assay (% of control group) ([5]; 1 × 10^−9 mg/ml): 91.3 ± 0.6 % of control group
MTT assay (% of control group) ([5]; 1 × 10^−9 mg/ml, listed as genistein): 91 % of control group
